{"source": "patent US20250114367A1", "about": "“METHOD OF TREATING HAIR LOSS DISORDERS” (Sun Pharmaceutical Industries, Inc., priority 2023, published 2025)", "key": {"[1]": {"system": "subjects with AA", "assay": "Open-label extension (OLE) studies: SALT score over time", "type": "in vivo, human", "conditions": "for percentage of subjects with a SALT score of ≤20: out to Week 52, pooled interim analysis", "description": "The SALT score is calculated for a patient/subject by measuring the percentage of hair loss in each of the 4 areas of the scalp and adding the total to achieve a composite score (referred to herein as an absolute SALT score). Hair regrowth is reflected by a decrease in the SALT score. For example, no hair on the scalp would have a SALT score of 100 (i.e., an absolute SALT score) while complete hair regrowth would be a SALT score of 0 (i.e., an absolute SALT score).\nSubjects completing 24 weeks of treatment with […] 8 mg twice daily in the Phase III trial were eligible to continue treatment in an open label extension trial. Following 52 additional weeks of treatment with […]™ 8 mg twice daily clinical response rates continued to increase with approximately 74% of the 80 subjects on 8 mg twice daily for 76 weeks achieving SALT ≤20.\nThe qualifying clinical trials including the following: 1. NCT03137381; 2. NCT03811912; 3. NCT03941548; 4. NCT04784533; 5. NCT04518995; and 6. NCT04797650 (all available a at https://clinicaltrials.gov).\nThe OLE Efficacy Population is defined as all subjects who received at least one dose of deuruxolitinib and had at least one post-baseline SALT assessment in OLE. The data analyses include subjects' data from the qualifying trial. Missing SALT scores were not imputed. The number of subjects decreases over time due to missing data, patient discontinuations, or subjects not yet at the later timepoints. Any SALT data after a qualifying dose change in the OLE was censored for all figures included here, except those showing the overall treatment sequence. A “qualifying dose change” referred to herein can be placebo in any qualifying trial to any dose of deuruxolitinib in the OLE (includes subjects who switched doses), or any dose of deuruxolitinib in a qualifying trial to any dose of deuruxolitinib in the OLE. Various analyses using SALT scores were conducted to best estimate the overall long-term effect of deuruxolitinib considering the issues with dose changes and decreasing patient numbers over time. “Any Dose” analysis tracks all active subjects over time pooled across the two doses. “As Observed” analysis censors subjects at the time of dose adjustment or study discontinuation. “LOCF” (last observation carried forward) analysis utilizes the last SALT score before dose change and carries it forward for all other timepoints up to 52 weeks."}, "[2]": {"system": "adult subjects with moderate to severe AA", "assay": "Phase III trial: Patient Global Impression of Improvement (PGI-I)", "type": "in vivo, human", "conditions": "non-missing data", "description": "The PGI-I was assessed by the subject. Compared to the subject's AA prior to treatment at baseline, the subject's current state of AA was assessed according to his/her perceived change. The subject selected 1 of 7 numeric choices representing “Very Much Worse” to “Very Much Improved.” If a subject was unable to attend an in-person clinic visit due to COVID-19, the PGI-I was to be performed via a virtual visit with video capability.\nA Phase III trial was conducted to assess the efficacy and safety of CTP-543 in adult subjects with moderate to severe AA. Approximately 440 adult male and female subjects 18 to 65 years of age, inclusive, with moderate to severe AA participated in the study. Subjects with definitive diagnosis of AA, and at least 50% hair loss, as defined by a SALT score ≥50, who met all of the inclusion criteria and none of the exclusion criteria participated in the study.\nThe Screening Period lasted up to 28 days prior to initiation of study drug. […] Randomization was stratified by scalp hair loss into 1 of the following 2 categories: 1) partial scalp hair loss (SALT ≥50 and <95), 2) complete or near complete scalp hair loss (SALT ≥95).\nAdditional secondary efficacy endpoints included the following: • Relative change in SALT scores from baseline at Weeks 4, 8, 12, 16, 20, and 24. • Percentage of responders (defined as “much improved” or “very much improved”) using the Clinical Global Impression of Improvement (CGI-I) at Weeks 12, 16, 20, and 24. • Percentage of responders (defined as “much improved” or “very much improved”) using the Patient Global Impression of Improvement (PGI-I) at Weeks 12, 16, 20, and 24. • Change from baseline in the Clinical Global Impression of Severity (CGI-S) at Weeks 12, 16, 20, and 24. • Change from baseline in the Patient Global Impression of Severity (PGI-S) at Weeks 12, 16, 20, and 24. • Change from baseline on the Brigham Eyebrow Tool for Alopecia (BETA) score at Weeks 12 and 24. • Change from baseline on the Brigham Eyelash Tool for Alopecia (BELA) score at Weeks 12 and 24. • Percentage of subjects achieving at least a 75% relative reduction in SALT score from baseline at Weeks 12 and 24. • Percentage of subjects achieving at least a 90% relative reduction in SALT score from baseline at Weeks 12 and 24. • Percentage of responders (defined as “satisfied” or “very satisfied”) on the SPRO scale at Weeks 12, 16, and 20. • Change from baseline in the SPRO scale at Weeks 12, 16, 20, and 24. • Percentage of subjects achieving a ≥2-point change from baseline in the SPRO scale at Weeks 12, 16, 20, and 24. • Change from baseline on the individual items of the Hair Quality Patient Reported Outcome (QPRO) scale at Weeks 12, 16, 20, and 24. • Change from baseline in the depression scale of the Hospital Anxiety and Depression Scale (HADS) at Week 24. • Change from baseline in the anxiety scale of the HADS at Week 24. • Percentage of subjects achieving an absolute SALT score of ≤20 at Week 4. • Percentage of subjects achieving an absolute SALT score of ≤10 at Week 24\nDetailed data are described below."}}, "note": "Values joined by “and” are separate entries in the source; they are usually repeats but may differ in a detail not shown here. Identical values can stand only once.", "data": [{"smiles": "[2H]C1([2H])C([C@@H](CC#N)n2cc(-c3ncnc4[nH]ccc34)cn2)C([2H])([2H])C([2H])([2H])C1([2H])[2H]", "note": "[CTP-543, (R)-3-(4-(7H-pyrrolo[2,3-d]pyrimidin-4-yl)-1H-pyrazol-1-yl)-3-(cyclopentyl-2,2,3,3,4,4,5,5-d8) propanenitrile]", "values": [{"measurement": "pooled mean SALT score", "setting": "[1]; 8 mg BID in OLE, placebo in the earlier studies", "result": 30.4}, {"measurement": "OLE responders who maintained treatment response in the OLE", "setting": "[1]; 8 mg BID in the OLE without a qualifying dose change, 282 of 283 responders", "result": 99.6, "unit": "%"}, {"measurement": "pooled mean SALT score", "setting": "[1]; 12 mg BID in OLE, placebo in the earlier studies", "result": 43.0}, {"measurement": "pooled mean SALT score", "setting": "[1]; 52 weeks, 8 mg BID in OLE, 8 mg of deuruxolitinib in the earlier studies", "result": 25.6}, {"measurement": "pooled mean SALT score", "setting": "[1]; 52 weeks, 8 mg BID or 12 mg BID in OLE, dosed with deuruxolitinib in the earlier studies", "result": 31.7}, {"measurement": "pooled mean SALT score", "setting": "[1]; 52 weeks, 8 mg BID or 12 mg BID in OLE, placebo in the earlier studies", "result": 43.6}, {"measurement": "pooled mean SALT score", "setting": "[1]; 52 weeks, 12 mg BID in OLE, 12 mg of deuruxolitinib in the earlier studies", "result": 27.7}, {"measurement": "subjects achieving SALT ≤20", "setting": "[1]; 80 subjects on 8 mg twice daily for 76 weeks (24 weeks Phase III + 52 weeks open label extension)", "result": "approximately 74%"}, {"measurement": "proportion of participants achieving SALT ≤20", "setting": "[1]; OLE at Week 68, any dose (including switched doses), listed as deuruxolitinib", "result": "62.6% and 63%"}, {"measurement": "proportion of participants achieving SALT ≤20 (FIG. 13A)", "setting": "[1]; Week 68, 8 mg BID", "result": "> 80", "unit": "%"}, {"measurement": "patients achieving SALT 10", "setting": "[1]; Week 68, 8 mg BID/8 mg BID group, As observed, 179/256", "result": 69.9, "unit": "%"}, {"measurement": "patients achieving SALT 10", "setting": "[1]; Week 68, 8 mg BID/8 mg BID group, LOCF, 213/521", "result": 40.9, "unit": "%"}, {"measurement": "proportion of participants achieving SALT ≤20", "setting": "[1]; Week 68, 8 mg BID, As Observed (AO), listed as deuruxolitinib", "result": "76.6% and 77%"}, {"measurement": "proportion of participants achieving SALT ≤20", "setting": "[1]; Week 68, 8 mg BID, LOCF", "result": 48.8, "unit": "%"}, {"measurement": "proportion of participants achieving SALT ≤20", "setting": "[1]; Week 68, 12 mg BID, As Observed (AO), listed as deuruxolitinib", "result": "66.7% and 67%"}, {"measurement": "proportion of participants achieving SALT ≤20", "setting": "[1]; Week 68, 12 mg BID, LOCF", "result": 60.9, "unit": "%"}, {"measurement": "patients achieving SALT 10", "setting": "[1]; Week 68, placebo/8 mg BID group, As observed, 39/59", "result": 66.1, "unit": "%"}, {"measurement": "patients achieving SALT 10", "setting": "[1]; Week 68, placebo/8 mg BID group, LOCF, 41/122", "result": 33.6, "unit": "%"}, {"measurement": "proportion of participants achieving SALT ≤20", "setting": "[1]; established in the Qualifying Studies, any dose", "result": 34.9, "unit": "%"}, {"measurement": "Mean SALT score", "setting": "[1]; out to 68 weeks, any dose in Qualifying Study and OLE, n=836, baseline 86.8 (n=984)", "result": 26.8}, {"measurement": "percentage of subjects with a SALT score of ≤20", "setting": "[1]; 8 mg twice per day in the OLE, listed as deuruxolitinib", "result": "63.6% and 64%"}, {"measurement": "percentage of subjects with a SALT score of ≤20", "setting": "[1]; 12 mg twice per day in the OLE, listed as deuruxolitinib", "result": "62.1% and 62%"}, {"measurement": "percentage of subjects with a SALT score of ≤20", "setting": "[1]; any dose in the OLE (including switched doses), listed as deuruxolitinib", "result": "57.1% and 57%"}, {"measurement": "percentage of PGI-I responders (very much improved or much improved)", "setting": "[2]; Week 24, 8 mg BID", "result": 50.9, "unit": "%"}, {"measurement": "percentage of PGI-I responders (very much improved or much improved)", "setting": "[2]; Week 24, 12 mg BID", "result": 68.3, "unit": "%"}, {"measurement": "percentage of PGI-I responders (very much improved or much improved)", "setting": "[2]; week 12, 8 mg BID", "result": 43.3, "unit": "%"}, {"measurement": "percentage of PGI-I responders (very much improved or much improved)", "setting": "[2]; week 12, 12 mg BID", "result": 49.2, "unit": "%"}, {"measurement": "percentage of PGI-I responders (very much improved or much improved)", "setting": "[2]; week 16, 8 mg BID", "result": 46.2, "unit": "%"}, {"measurement": "percentage of PGI-I responders (very much improved or much improved)", "setting": "[2]; week 16, 12 mg BID", "result": 59.8, "unit": "%"}, {"measurement": "percentage of PGI-I responders (very much improved or much improved)", "setting": "[2]; week 20, 8 mg BID", "result": 48.7, "unit": "%"}, {"measurement": "percentage of PGI-I responders (very much improved or much improved)", "setting": "[2]; week 20, 12 mg BID", "result": 64.4, "unit": "%"}]}]}
